The text below walks through data of US20030049317A1, “Method and composition for reducing the danger and preventing the abuse of controlled release pharmaceutical formulations” (priority 2001, published 2003).

Test [1] is classed as in vivo. To be noted: in comparison to a 15 mg dose of hydrocodone.
Test [2] has as its system morphine-like opioid agonist effects. The note with it: cited from earlier work; for action of the naloxone amount in Talwin Nx: naloxone hydrochloride equivalent to 0.5 mg base.

SMILES strings stand for the structures. Like-named read-outs stand apart in the source and are kept apart here.

Consider `COc1ccc2c3c1O[C@H]1C(=O)CC[C@H]4[C@@H](C2)N(C)CC[C@]314` [Hydrocodone], for which the “Equianalgesic dose, Calculated Dose” value in test [1] is 15.0 mg.

Take `C=CCN1CC[C@]23c4c5ccc(O)c4O[C@H]2C(=O)CC[C@@]3(O)[C@H]1C5` [naloxone]: the onset of effects entry in test [2] (after intravenous administration) was “almost immediately”. Further, the “action of the naloxone amount in Talwin Nx” value in test [2] (given by injection) was “profound antagonistic action to narcotic analgesics”; in test [2] (taken orally) it was “no action when taken orally”. For the same compound, in test [2] (one mg intravenously versus 25 mg of heroin), the “block of heroin effects” value was “completely block the effects of 25 mg of heroin”. Besides, the “effect on morphine-like opioid agonist effects” value in test [2] (small doses (0.4-0.8 mg) intramuscularly or intravenously in humans) is on record as “prevents or promptly reverses the effects of morphine-like opioid agonist”.
